In US6706757B2, “Chroman derivatives as 5-hydroxytryptamine-6 ligands” (Wyeth, priority 2001, dated 2004):

Biological target: T1, human cloned 5-HT6 receptors (Homo sapiens, UniProt P50406)
T1 construct: expressed in transfected cells; host or cells: HeLa cells (membrane preparation)
Test: 5-HT6 binding affinity, [3H]-LSD displacement on membranes of Hela cells expressing human cloned 5-HT6 receptors
Settings: [3H]-LSD 3.0 nM, Hela cell membranes, 120 min at room temperature
Experimental: The affinity of test compounds for the serotonin 5-HT6 receptor is evaluated in the following manner. Cultured Hela cells expressing human cloned 5-HT6 receptors are harvested and centrifuged at low speed (1,000×g) for 10.0 min to remove the culture media. The harvested cells are suspended in half volume of fresh physiological phosphate buffered saline solution and recentrifuged at the same speed. This operation is repeated. The collected cells are then homogenized in ten volumes of 50 mM Tris.HCl (pH 7.4) and 0.5 mM EDTA. The homogenate is centrifuged at 40,000×g for 30.0 min and the precipitate is collected. The obtained pellet is resuspended in 10 volumes of Tris.HCl buffer and recentrifuged at the same speed. The final pellet is suspended in a small volume of Tris.HCl buffer and the tissue protein content is determined in aliquots of 10-25 μl volumes. Bovine Serum Albumin is used as the standard in the protein determination according to the method described in Lowry et al., J. Biol. Chem., 193:265 (1951). The volume of the suspended cell membranes is adjusted to give a tissue protein concentration of 1.0 mg/ml of suspension. The prepared membrane suspension (10 times concentrated) is aliquoted in 1.0 ml volumes and stored at −70° C. until used in subsequent binding experiments.
Binding experiments are performed in a 96 well microtiter plate format, in a total volume of 200 μl. […] The test compounds are added in 20.0 μl volume.
The reaction is allowed to proceed in the dark for 120 min at room temperature, at which time, the bound ligand-receptor complex is filtered off on a 96 well unifilter with a Packard Filtermate® 196 Harvester. The bound complex caught on the filter disk is allowed to air dry and the radioactivity is measured in a Packard TopCount® equipped with six photomultiplier detectors, after the addition of 40.0 μl Microscint®-20 scintillant to each shallow well. The unifilter plate is heat-sealed and counted in a PackardTopCount® with a tritium efficiency of 31.0%.
Binding in the presence of varying concentrations of test compound is expressed as a percentage of specific binding in the absence of test compound. The results are plotted as log % bound versus log concentration of test compound. […] A linear regression line of data points is plotted, from which the IC50 value is determined and the Ki value is determined based upon the following equation: […]
where L is the concentration of the radioactive ligand used and KD is the dissociation constant of the ligand for the receptor, both expressed in nM.

T1 sequence (P50406 whole entry): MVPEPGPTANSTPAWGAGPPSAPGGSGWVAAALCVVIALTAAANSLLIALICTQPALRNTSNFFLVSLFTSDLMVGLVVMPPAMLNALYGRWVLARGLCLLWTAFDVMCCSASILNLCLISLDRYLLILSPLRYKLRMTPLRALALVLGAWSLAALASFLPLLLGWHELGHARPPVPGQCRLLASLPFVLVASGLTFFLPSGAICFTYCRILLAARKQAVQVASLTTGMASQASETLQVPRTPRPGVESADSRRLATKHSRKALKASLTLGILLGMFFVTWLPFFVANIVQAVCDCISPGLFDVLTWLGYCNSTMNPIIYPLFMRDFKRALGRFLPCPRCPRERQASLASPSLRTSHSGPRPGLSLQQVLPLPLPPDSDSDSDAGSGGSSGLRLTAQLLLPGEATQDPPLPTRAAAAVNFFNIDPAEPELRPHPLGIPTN

Compound | Ki
C[C@@H](NCC1CCc2ccc(NS(=O)(=O)c3ccc(Cl)cc3)cc2O1)c1ccccc1 (stereo partly drawn) [Example 38, 4-chloro-N-[2-({[(1R)-1-phenylethyl]amino}methyl)-3,4-dihydro-2H-chromen-7-yl]benzenesulfonamide] | 5 nM
C[C@@H](NCC1CCc2ccc(N(C)S(=O)(=O)c3ccccc3Br)cc2O1)c1ccccc1 (stereo partly drawn) [Example 51, 2-bromo-N-methyl-N-[2-({[(1R)-1-phenylethyl]amino}methyl)-3,4-dihydro-2H-chromen-7-yl]benzenesulfonamide] | 3 nM
C[C@@H](NCC1CCc2ccc(NS(=O)(=O)c3ccc(Br)s3)cc2O1)c1ccccc1 (stereo partly drawn) [Example 34, 5-bromo-N-[2-({[(1R)-1-phenylethyl]amino}methyl)-3,4-dihydro-2H-chromen-7-yl]-2-thiophenesulfonamide] | 5 nM
CC1CCCC(C)N1CC1CCc2ccc(NS(=O)(=O)c3ccccc3)cc2O1 (stereo not drawn) [Example 24, N-{2-[(2,6-dimethylpiperidin-1-yl)methyl]-3,4-dihydro-2H-chromen-7-yl}benzenesulfonamide] | 72 nM
CC(C)C[C@H](CO)NCC1CCc2ccc(NS(=O)(=O)c3ccccc3)cc2O1 (stereo partly drawn) [Example 22, N-[2-({[(1R)-1-(hydroxymethyl)-3-methylbutyl]amino}methyl)-3,4-dihydro-2H-chromen-7yl]benzenesulfonamide] | 3 nM
C[C@@H](NCC1CCc2ccc(NS(=O)(=O)c3ccccc3)cc2O1)C1CCCCC1 (stereo partly drawn) [Example 27, N-[2-({[(1R)-1-cyclohexylethyl]amino}methyl)-3,4-dihydro-2H-chromen-7-yl]benzenesulfonamide] | 7 nM
COc1ccc(S(=O)(=O)Nc2ccc3c(c2)OC(CNCCCO)CC3)cc1 (stereo not drawn) [Example 29, N-(2-{[(3-hydroxypropyl)amino]methyl}-3,4-dihydro-2H-chromen-7-yl)-4-methoxybenzenesulfonamide] | 39 nM
C[C@@H](NCC1CCc2ccc(NS(=O)(=O)c3ccc(OC(F)(F)F)cc3)cc2O1)c1ccccc1 (stereo partly drawn) [Example 40, N-[2-({[(1R)-1-phenylethyl]amino}methyl)-3,4-dihydro-2H-chromen-7-yl]-4-(trifluoromethoxy)benzenesulfonamide] | 11 nM
C[C@@H](NCC1CCc2ccc(N(C)S(=O)(=O)c3cccc4ccccc34)cc2O1)c1ccccc1 (stereo partly drawn) [Example 55, N-methyl-N-[2-({[(1R)-1-phenylethyl]amino}methyl)-3,4-dihydro-2H-chromen-7-yl]naphthalene-1-sulfonamide] | 4 nM
COc1ccc(S(=O)(=O)Nc2ccc3c(c2)OC(CN[C@H](C)c2ccccc2)CC3)cc1 (stereo partly drawn) [Example 39, 4-methoxy-N-[2-({[(1R)-1-phenylethyl]amino}methyl)-3,4-dihydro-2H-chromen-7-yl]benzenesulfonamide] | 10 nM

Next, values leading:

Ki | Compound
1 nM | C[C@@H](NCC1CCc2ccc(NS(=O)(=O)c3ccccc3)cc2O1)c1ccccc1 (stereo partly drawn) [Example 10, N-[2-({[(1R)-1-phenylethyl]amino}methyl)-3,4-dihydro-2H-chromen-7-yl]benzenesulfonamide]
5 nM | O=S(=O)(Nc1ccc2c(c1)OC(CNCc1cccnc1)CC2)c1ccccc1 (stereo not drawn) [Example 12, N-(2-{[(pyridin-3-ylmethyl)amino]methyl}-3,4-dihydro-2H-chromen-7-yl)benzenesulfonamide]
2 nM | O=S(=O)(Nc1ccc2c(c1)OC(CNCCCOc1ccccc1)CC2)c1ccccc1 (stereo not drawn) [Example 9, N-(2-{[(3-phenoxypropyl)amino]methyl}-3,4-dihydro-2H-chromen-7-yl)benzenesulfonamide]
16 nM | CC(C)NCC1CCc2ccc(NS(=O)(=O)c3ccccc3)cc2O1 (stereo not drawn) [Example 19, N-{2-[(isopropylamino)methyl]-3,4-dihydro-2H-chromen-7-yl}benzenesulfonamide]
16 nM | Cc1ccc(S(=O)(=O)Nc2ccc3c(c2)OC(CN[C@H](C)c2ccccc2)CC3)cc1 (stereo partly drawn) [Example 37, 4-methyl-N-[2-({[(1R)-1-phenylethyl]amino}methyl)-3,4-dihydro-2H-chromen-7-yl]benzenesulfonamide]
